For orientation: IC50 means the concentration needed to halve the response being measured.

A short description of the assay: Antagonist activity at P2Y12 receptor in human platelet rich plasma assessed as inhibition of ADP-induced platelet aggregation by light transmission aggregometry.
Regarding `CCCCOC(=O)N1CCN(C(=O)[C@H](CCC(=O)O)NC(=O)c2cc(N3CCC(CCOC)CC3)nc(-c3ccccc3)n2)CC1` [(S)-5-(4-(butoxycarbonyl)piperazin-1-yl)-4-(6-(4-(2-methoxyethyl)piperidin-1-yl)-2-phenylpyrimidine-4-carboxamido)-5-oxopentanoic acid], the IC50 came to 1.2 µM.

In the case of `CCCCCOC(=O)N1CCN(C(=O)[C@H](CCC(=O)O)NC(=O)c2nc(-c3ccccc3)cc(N3CCC(COC)CC3)n2)CC1` [(S)-4-(4-(4-(methoxymethyl)piperidin-1-yl)-6-phenylpyrimidine-2-carboxamido)-5-oxo-5-(4-(pentyloxycarbonyl)piperazin-1-yl)pentanoic acid], the IC50 was determined as 6.8 µM. Under `CCCCCOC(=O)N1CCN(C(=O)[C@H](CCC(=O)O)NC(=O)c2nc(OCC3CCN(C)CC3)cc(-c3ccccc3)n2)CC1` [(S)-4-(4-((1-methylpiperidin-4-yl)methoxy)-6-phenylpyrimidine-2-carboxamido)-5-oxo-5-(4-(pentyloxycarbonyl)piperazin-1-yl)pentanoic acid] stands 3.8 µM. Under `CCCCCOC(=O)N1CCN(C(=O)[C@H](CCC(=O)O)NC(=O)c2cc(N3CCC(COCCOC)CC3)nc(-c3ccccc3)n2)CC1` [(S)-4-(6-(4-((2-methoxyethoxy)methyl)piperidin-1-yl)-2-phenylpyrimidine-4-carboxamido)-5-oxo-5-(4-(pentyloxycarbonyl)piperazin-1-yl)pentanoic acid] stands 2 µM; under `CCCCCOC(=O)N1CCN(C(=O)[C@H](CCC(=O)O)NC(=O)c2cc(SCCO)nc(-c3ccccc3)n2)CC1` [(S)-4-(6-(2-hydroxyethylthio)-2-phenylpyrimidine-4-carboxamido)-5-oxo-5-(4-(pentyloxycarbonyl)piperazin-1-yl)pentanoic acid], greater than 10 µM; under `CCCCCOC(=O)N1CCN(C(=O)[C@H](CCC(=O)O)NC(=O)c2cc(N3CCC(CC(=O)N4CCCC4)CC3)nc(-c3ccccc3)n2)CC1` [(S)-5-oxo-4-(6-(4-(2-oxo-2-(pyrrolidin-1-yl)ethyl)piperidin-1-yl)-2-phenylpyrimidine-4-carboxamido)-5-(4-(pentyloxycarbonyl)piperazin-1-yl)pentanoic acid], 1.5 µM. Turning to `CCCCCOC(=O)N1CCN(C(=O)[C@H](CCC(=O)O)NC(=O)c2nc(-c3ccccc3)cc(N3CCC(N)CC3)n2)CC1` [(S)-4-(4-(4-aminopiperidin-1-yl)-6-phenylpyrimidine-2-carboxamido)-5-oxo-5-(4-(pentyloxycarbonyl)piperazin-1-yl)pentanoic acid], the IC50 was found to be 2.7 µM.

Turning to `CCCCCOC(=O)N1CCN(C(=O)[C@H](CCC(=O)O)NC(=O)c2nc(-c3ccccc3)cc(N3CCC(CNCC)CC3)n2)CC1` [(S)-4-(4-(4-((ethylamino)methyl)piperidin-1-yl)-6-phenylpyrimidine-2-carboxamido)-5-oxo-5-(4-(pentyloxycarbonyl)piperazin-1-yl)pentanoic acid], the IC50 turned out to be 1.2 µM. Under `CCCCOC(=O)N1CCN(C(=O)[C@H](CCC(=O)O)NC(=O)c2cc(OCC3CCCO3)nc(-c3ccccc3)n2)CC1` (stereo partly drawn) [(4S)-5-(4-(butoxycarbonyl)piperazin-1-yl)-5-oxo-4-(2-phenyl-6-((tetrahydrofuran-2-yl)methoxy)pyrimidine-4-carboxamido)pentanoic acid] stands 4.4 µM; under `CCCCCOC(=O)N1CCN(C(=O)[C@H](CCC(=O)O)NC(=O)c2cc(SCC(F)(F)F)nc(-c3ccccc3)n2)CC1` [(S)-5-oxo-5-(4-(pentyloxycarbonyl)piperazin-1-yl)-4-(2-phenyl-6-(2,2,2-trifluoroethylthio)pyrimidine-4-carboxamido)pentanoic acid], greater than 10 µM; under `CCCCCOC(=O)N1CCN(C(=O)[C@H](CCC(=O)O)NC(=O)c2nc(-c3ccccc3)cc(N3CCN(CC(=O)N(C)C)CC3)n2)CC1` [(S)-4-(4-(4-(2-(dimethylamino)-2-oxoethyl)piperazin-1-yl)-6-phenylpyrimidine-2-carboxamido)-5-oxo-5-(4-(pentyloxycarbonyl)piperazin-1-yl)pentanoic acid], 3 µM. Under `CCCCCOC(=O)N1CCN(C(=O)[C@H](CCC(=O)O)NC(=O)c2cc(OCCN(CC)CC)nc(-c3ccccc3)n2)CC1` [(S)-4-(6-(2-(diethylamino)ethoxy)-2-phenylpyrimidine-4-carboxamido)-5-oxo-5-(4-(pentyloxycarbonyl)piperazin-1-yl)pentanoic acid] stands 15 µM. Under `CCCCCOC(=O)N1CCN(C(=O)[C@H](CCC(=O)O)NC(=O)c2nc(-c3ccccc3)cc(N3CCC(C(=O)N(CC)CC)CC3)n2)CC1` [(S)-4-(4-(4-(diethylcarbamoyl)piperidin-1-yl)-6-phenylpyrimidine-2-carboxamido)-5-oxo-5-(4-(pentyloxycarbonyl)piperazin-1-yl)pentanoic acid] stands 1.3 µM. For the compound `CCCCCOC(=O)N1CCN(C(=O)[C@H](CCC(=O)O)NC(=O)c2nc(-c3ccccc3)cc(N3CCC(N4CCOCC4)CC3)n2)CC1` [(S)-4-(4-(4-morpholinopiperidin-1-yl)-6-phenylpyrimidine-2-carboxamido)-5-oxo-5-(4-(pentyloxycarbonyl)piperazin-1-yl)pentanoic acid], the 50% inhibitory concentration (IC50) worked out at 3 µM. Under `CCCCCOC(=O)N1CCN(C(=O)[C@H](CCC(=O)O)NC(=O)c2cc(N3CC(OCC)C3)nc(-c3ccccc3)n2)CC1` [(S)-4-(6-(3-ethoxyazetidin-1-yl)-2-phenylpyrimidine-4-carboxamido)-5-oxo-5-(4-(pentyloxycarbonyl)piperazin-1-yl)pentanoic acid] stands 4.1 µM; under `CCCCCOC(=O)N1CCN(C(=O)[C@H](CCC(=O)O)NC(=O)c2cc(OCCCN3CCOCC3)nc(-c3ccccc3)n2)CC1` [(S)-4-(6-(3-morpholinopropoxy)-2-phenylpyrimidine-4-carboxamido)-5-oxo-5-(4-(pentyloxycarbonyl)piperazin-1-yl)pentanoic acid], 8.7 µM. Under `CCCCOC(=O)N1CCN(C(=O)[C@H](CCC(=O)O)NC(=O)c2cc(OCCN(CC)CC)nc(-c3ccccc3)n2)CC1` [(S)-5-(4-(butoxycarbonyl)piperazin-1-yl)-4-(6-(2-(diethylamino)ethoxy)-2-phenylpyrimidine-4-carboxamido)-5-oxopentanoic acid] stands 3 µM; under `CCCCCOC(=O)N1CCN(C(=O)[C@H](CCC(=O)O)NC(=O)c2cc(N3CCN(CCOC)CC3)nc(-c3ccccc3)n2)CC1` [(S)-4-(6-(4-(2-methoxyethyl)piperazin-1-yl)-2-phenylpyrimidine-4-carboxamido)-5-oxo-5-(4-(pentyloxycarbonyl)piperazin-1-yl)pentanoic acid], 2.2 µM.

`CCCCOC(=O)N1CCN(C(=O)[C@H](CCC(=O)O)NC(=O)c2cc(OCCOC)nc(-c3ccccc3)n2)CC1` [(S)-5-(4-(butoxycarbonyl)piperazin-1-yl)-4-(6-(2-methoxyethoxy)-2-phenylpyrimidine-4-carboxamido)-5-oxopentanoic acid]: the IC50 is 2.6 µM. With `CCCCCOC(=O)N1CCN(C(=O)[C@H](CCC(=O)O)NC(=O)c2cc(N3CCC(N4CCCC4)CC3)nc(-c3ccccc3)n2)CC1` [(S)-5-oxo-5-(4-(pentyloxycarbonyl)piperazin-1-yl)-4-(2-phenyl-6-(4-(pyrrolidin-1-yl)piperidin-1-yl)pyrimidine-4-carboxamido)pentanoic acid] the figure was 0.51 µM. With `CCCCCOC(=O)N1CCN(C(=O)[C@H](CCC(=O)O)NC(=O)c2nc(-c3ccccc3)cc(N3CCC(N4CCCC4)CC3)n2)CC1` [(S)-5-oxo-5-(4-(pentyloxycarbonyl)piperazin-1-yl)-4-(4-phenyl-6-(4-(pyrrolidin-1-yl)piperidin-1-yl)pyrimidine-2-carboxamido)pentanoic acid] the figure was 2.1 µM. With `CCCCCOC(=O)N1CCN(C(=O)[C@H](CCC(=O)O)NC(=O)c2cc(N3CCC(C(=O)N(CC)CC)CC3)nc(-c3ccccc3)n2)CC1` [(S)-4-(6-(4-(diethylcarbamoyl)piperidin-1-yl)-2-phenylpyrimidine-4-carboxamido)-5-oxo-5-(4-(pentyloxycarbonyl)piperazin-1-yl)pentanoic acid] the figure was 0.4 µM; with `CCCCCOC(=O)N1CCN(C(=O)[C@H](CCC(=O)O)NC(=O)c2nc(-c3ccccc3)cc(N3CCN(C(N)=O)CC3)n2)CC1` [(S)-4-(4-(4-carbamoylpiperazin-1-yl)-6-phenylpyrimidine-2-carboxamido)-5-oxo-5-(4-(pentyloxycarbonyl)piperazin-1-yl)pentanoic acid], 3.6 µM. `CCCCCOC(=O)N1CCN(C(=O)[C@H](CCC(=O)O)NC(=O)c2nc(-c3ccccc3)cc(N3CCC(OCCOC)CC3)n2)CC1` [(S)-4-(4-(4-(2-methoxyethoxy)piperidin-1-yl)-6-phenylpyrimidine-2-carboxamido)-5-oxo-5-(4-(pentyloxycarbonyl)piperazin-1-yl)pentanoic acid]: the IC50 was found to be 5.3 µM. Under `CCCCCOC(=O)N1CCN(C(=O)[C@H](CCC(=O)O)NC(=O)c2cc(N3CCC(CCOC)CC3)nc(-c3ccccc3)n2)CC1` [(S)-4-(6-(4-(2-methoxyethyl)piperidin-1-yl)-2-phenylpyrimidine-4-carboxamido)-5-oxo-5-(4-(pentyloxycarbonyl)piperazin-1-yl)pentanoic acid] stands 6.3 µM; under `CCCCCOC(=O)N1CCN(C(=O)[C@H](CCC(=O)O)NC(=O)c2nc(-c3ccccc3)cc(N3CCC(CN)CC3)n2)CC1` [(S)-4-(4-(4-(aminomethyl)piperidin-1-yl)-6-phenylpyrimidine-2-carboxamido)-5-oxo-5-(4-(pentyloxycarbonyl)piperazin-1-yl)pentanoic acid], 0.77 µM; under `CCCCCOC(=O)N1CCN(C(=O)[C@H](CCC(=O)O)NC(=O)c2cc(N3CCC(C)CC3)nc(-c3ccccc3)n2)CC1` [(S)-4-(6-(4-methylpiperidin-1-yl)-2-phenylpyrimidine-4-carboxamido)-5-oxo-5-(4-(pentyloxycarbonyl)piperazin-1-yl)pentanoic acid], greater than 10 µM. Under `CCCCCOC(=O)N1CCN(C(=O)[C@H](CCC(=O)O)NC(=O)c2cc(N3CCC(C(=O)N4CCC4)CC3)nc(-c3ccccc3)n2)CC1` [(S)-4-(6-(4-(azetidine-1-carbonyl)piperidin-1-yl)-2-phenylpyrimidine-4-carboxamido)-5-oxo-5-(4-(pentyloxycarbonyl)piperazin-1-yl)pentanoic acid] stands 0.23 µM.

The values above are taken from BindingDB's records for doi:10.1016/j.bmcl.2009.09.017 (Pfizer, 2009).
